Maxi-K current, % of control data for 9 compounds are collected here from ChEMBL document CHEMBL1151609, “The discovery of novel openers of Ca2+-dependent large-conductance potassium channels: Pharmacophore search and physiological evaluation of flavonoids” (Bioorg Med Chem Lett, 1997).

Molecules are shown by their SMILES.

Chain of Calcium-activated potassium channel subunit alpha-1 (Homo sapiens) (Q12791 whole entry): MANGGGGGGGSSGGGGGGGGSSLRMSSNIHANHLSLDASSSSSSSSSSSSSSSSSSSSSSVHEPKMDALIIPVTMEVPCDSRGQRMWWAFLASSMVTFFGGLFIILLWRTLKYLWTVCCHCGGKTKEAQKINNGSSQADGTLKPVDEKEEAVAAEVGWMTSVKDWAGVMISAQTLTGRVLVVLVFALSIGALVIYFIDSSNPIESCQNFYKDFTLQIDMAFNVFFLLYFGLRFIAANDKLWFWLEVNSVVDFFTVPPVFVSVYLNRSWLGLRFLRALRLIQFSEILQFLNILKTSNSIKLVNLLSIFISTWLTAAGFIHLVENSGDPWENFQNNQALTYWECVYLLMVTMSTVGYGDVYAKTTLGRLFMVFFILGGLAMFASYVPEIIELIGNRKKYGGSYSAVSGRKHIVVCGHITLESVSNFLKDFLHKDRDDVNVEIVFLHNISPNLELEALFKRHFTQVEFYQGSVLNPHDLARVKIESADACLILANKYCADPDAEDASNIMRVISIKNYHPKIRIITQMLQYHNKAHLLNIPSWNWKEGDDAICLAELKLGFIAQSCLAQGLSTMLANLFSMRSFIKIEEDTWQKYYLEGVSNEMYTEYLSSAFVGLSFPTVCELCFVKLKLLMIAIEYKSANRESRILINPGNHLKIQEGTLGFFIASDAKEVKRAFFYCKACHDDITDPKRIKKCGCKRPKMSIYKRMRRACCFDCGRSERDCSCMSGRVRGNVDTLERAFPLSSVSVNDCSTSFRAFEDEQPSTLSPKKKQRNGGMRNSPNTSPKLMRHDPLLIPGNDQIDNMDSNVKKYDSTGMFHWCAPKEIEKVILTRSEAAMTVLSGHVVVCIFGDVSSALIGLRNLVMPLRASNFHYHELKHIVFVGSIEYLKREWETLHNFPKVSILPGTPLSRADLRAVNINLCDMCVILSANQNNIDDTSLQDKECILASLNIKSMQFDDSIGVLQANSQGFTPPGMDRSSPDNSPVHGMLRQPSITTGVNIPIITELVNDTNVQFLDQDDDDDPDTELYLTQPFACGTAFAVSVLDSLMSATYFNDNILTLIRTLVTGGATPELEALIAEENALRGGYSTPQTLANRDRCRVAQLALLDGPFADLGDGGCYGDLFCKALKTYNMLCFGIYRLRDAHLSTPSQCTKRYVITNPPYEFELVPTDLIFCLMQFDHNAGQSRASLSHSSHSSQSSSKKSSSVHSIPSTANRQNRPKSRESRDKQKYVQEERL

The assay concerns the target Calcium-activated potassium channel subunit alpha-1 (Homo sapiens) (UniProt Q12791). The assay can be described thus: The compound was tested for maxi-K channel opening property at concentration of 20 uM, activity expressed as percentage of current.
Take `O=c1[nH]c2cc(C(F)(F)F)ccc2n1-c1cc(Cl)ccc1O`: the Maxi-K current, % of control stood at 132%. In the case of `O=C(CCc1ccc(O)cc1)c1c(O)cc(O)cc1O` it was 120%; in that of `O=C(/C=C/c1ccccc1)c1ccccc1`, 82.4%. Consider `CC(=O)Nc1ccc(O)c(C(=O)/C=C/c2ccccc2)c1`, for which the Maxi-K current, % of control amounted to 81.5%. Regarding `O=C(/C=C/c1cccc([N+](=O)[O-])c1)c1ccccc1O`, the Maxi-K current, % of control worked out at 74.4%. Regarding `O=c1c(O)c(-c2ccc(O)cc2)oc2cc(O)cc(O)c12`, the Maxi-K current, % of control was determined as 167%. In the case of `COc1cc(OC)c2c(=O)c(OC)c(-c3ccc(OC)c(OC)c3)oc2c1` it was 94.6%; in that of `O=c1cc(-c2ccc(O)cc2)oc2cc(O)cc(O)c12`, 159%; in that of `O=c1cc(-c2ccccc2)oc2ccccc12`, 103%.
